Drawing on patent publication US20240246942A1, “KINASE INHIBITORS FOR THE TREATMENT OF NEURODEGENERATIVE DISEASES” (priority 2020, published 2024), this text covers remaining activity for three compounds.

Molecules are shown by their SMILES.

What all share (assay): biochemical
Assay [1] addresses T1, panel of 374 wild-type kinases (Homo sapiens, UniProt O43781).
T1 construct: purchased Reaction Biology Corporation
T1 sequence (O43781 1-588): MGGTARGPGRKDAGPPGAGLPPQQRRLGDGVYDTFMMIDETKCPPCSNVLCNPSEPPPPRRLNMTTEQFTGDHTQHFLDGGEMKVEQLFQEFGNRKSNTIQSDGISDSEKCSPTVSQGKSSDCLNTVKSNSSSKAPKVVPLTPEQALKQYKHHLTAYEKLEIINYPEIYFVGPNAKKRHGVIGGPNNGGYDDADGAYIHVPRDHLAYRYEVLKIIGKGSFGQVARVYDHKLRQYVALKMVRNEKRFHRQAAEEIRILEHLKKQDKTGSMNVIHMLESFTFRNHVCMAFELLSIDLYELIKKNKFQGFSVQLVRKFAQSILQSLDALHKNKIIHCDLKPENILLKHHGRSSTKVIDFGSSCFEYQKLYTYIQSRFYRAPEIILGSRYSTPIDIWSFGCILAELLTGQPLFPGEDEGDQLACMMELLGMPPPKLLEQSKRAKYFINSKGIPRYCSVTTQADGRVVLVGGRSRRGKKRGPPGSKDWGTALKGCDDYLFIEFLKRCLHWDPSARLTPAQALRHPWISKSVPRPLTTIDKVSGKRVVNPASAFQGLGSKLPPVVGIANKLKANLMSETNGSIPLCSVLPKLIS
Particulars: read-out: % Enzyme Activity (relative to DMSO controls), DYRK3.

The target in assay [2] is T2, panel of 374 wild-type kinases (Homo sapiens, UniProt P14616).
T2 construct: purchased Reaction Biology Corporation
The settings on record: read-out: % Enzyme Activity (relative to DMSO controls), IRR/INSRR.

In assay [3] the target is T3, panel of 374 wild-type kinases (Homo sapiens, UniProt P22455).
T3 construct: purchased Reaction Biology Corporation
Particulars: for remaining activity at 5 µM: read-out: % Enzyme Activity (relative to DMSO controls), FGFR4.

Assay [4] deals with T4, panel of 374 wild-type kinases (Homo sapiens, UniProt P49137).
T4 construct: purchased Reaction Biology Corporation
The settings on record: read-out: % Enzyme Activity (relative to DMSO controls), MAPKAPK2.

Assay [5] addresses T5, panel of 374 wild-type kinases (Homo sapiens, UniProt Q13557).
T5 construct: purchased Reaction Biology Corporation
Particulars: read-out: % Enzyme Activity (relative to DMSO controls), CAMK2d.

Assay [6] has as its target T6, panel of 374 wild-type kinases (Homo sapiens, UniProt Q15418).
T6 construct: purchased Reaction Biology Corporation
Particulars: read-out: % Enzyme Activity (relative to DMSO controls), kinase RSK1.

Assay [7] deals with T7, panel of 374 wild-type kinases (Homo sapiens, UniProt Q9H2X6).
T7 construct: purchased Reaction Biology Corporation
Particulars: read-out: % Enzyme Activity (relative to DMSO controls), HIPK2.

Assay [8] concerns the target T8, panel of 374 wild-type kinases (Homo sapiens, UniProt Q9NRM7).
T8 construct: purchased Reaction Biology Corporation
T8 sequence (Q9NRM7 1-1088): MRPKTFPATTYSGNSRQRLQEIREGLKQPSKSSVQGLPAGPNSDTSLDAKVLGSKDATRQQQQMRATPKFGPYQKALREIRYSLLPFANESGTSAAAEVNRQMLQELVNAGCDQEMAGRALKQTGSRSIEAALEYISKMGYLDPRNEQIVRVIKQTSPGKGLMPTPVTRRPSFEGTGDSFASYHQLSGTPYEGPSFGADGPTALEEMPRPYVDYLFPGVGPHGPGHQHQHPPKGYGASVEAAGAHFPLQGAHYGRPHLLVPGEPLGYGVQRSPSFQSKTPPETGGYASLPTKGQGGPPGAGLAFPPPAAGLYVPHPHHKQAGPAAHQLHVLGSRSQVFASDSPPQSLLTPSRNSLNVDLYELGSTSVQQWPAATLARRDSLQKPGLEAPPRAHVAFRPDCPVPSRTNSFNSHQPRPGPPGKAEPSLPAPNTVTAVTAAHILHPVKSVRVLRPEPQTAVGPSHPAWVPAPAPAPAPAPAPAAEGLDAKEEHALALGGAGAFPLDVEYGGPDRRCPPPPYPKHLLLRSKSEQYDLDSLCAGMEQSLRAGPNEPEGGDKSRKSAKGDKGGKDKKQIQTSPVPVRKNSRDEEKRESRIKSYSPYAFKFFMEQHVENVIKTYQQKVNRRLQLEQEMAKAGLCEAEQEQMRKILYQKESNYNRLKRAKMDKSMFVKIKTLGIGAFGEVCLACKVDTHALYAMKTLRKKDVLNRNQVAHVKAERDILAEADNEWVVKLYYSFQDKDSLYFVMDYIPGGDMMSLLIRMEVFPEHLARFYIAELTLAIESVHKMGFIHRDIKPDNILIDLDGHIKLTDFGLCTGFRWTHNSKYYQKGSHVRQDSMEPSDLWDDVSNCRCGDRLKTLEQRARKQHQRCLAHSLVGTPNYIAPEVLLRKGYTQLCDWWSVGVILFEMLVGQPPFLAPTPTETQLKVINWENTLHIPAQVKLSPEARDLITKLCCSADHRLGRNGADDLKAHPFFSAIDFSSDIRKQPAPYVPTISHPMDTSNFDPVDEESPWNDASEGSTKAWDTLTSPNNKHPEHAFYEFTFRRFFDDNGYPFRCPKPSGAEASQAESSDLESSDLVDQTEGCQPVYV
The settings on record: read-out: % Enzyme Activity (relative to DMSO controls), LATS2.

T6 sequence (Q15418 whole entry): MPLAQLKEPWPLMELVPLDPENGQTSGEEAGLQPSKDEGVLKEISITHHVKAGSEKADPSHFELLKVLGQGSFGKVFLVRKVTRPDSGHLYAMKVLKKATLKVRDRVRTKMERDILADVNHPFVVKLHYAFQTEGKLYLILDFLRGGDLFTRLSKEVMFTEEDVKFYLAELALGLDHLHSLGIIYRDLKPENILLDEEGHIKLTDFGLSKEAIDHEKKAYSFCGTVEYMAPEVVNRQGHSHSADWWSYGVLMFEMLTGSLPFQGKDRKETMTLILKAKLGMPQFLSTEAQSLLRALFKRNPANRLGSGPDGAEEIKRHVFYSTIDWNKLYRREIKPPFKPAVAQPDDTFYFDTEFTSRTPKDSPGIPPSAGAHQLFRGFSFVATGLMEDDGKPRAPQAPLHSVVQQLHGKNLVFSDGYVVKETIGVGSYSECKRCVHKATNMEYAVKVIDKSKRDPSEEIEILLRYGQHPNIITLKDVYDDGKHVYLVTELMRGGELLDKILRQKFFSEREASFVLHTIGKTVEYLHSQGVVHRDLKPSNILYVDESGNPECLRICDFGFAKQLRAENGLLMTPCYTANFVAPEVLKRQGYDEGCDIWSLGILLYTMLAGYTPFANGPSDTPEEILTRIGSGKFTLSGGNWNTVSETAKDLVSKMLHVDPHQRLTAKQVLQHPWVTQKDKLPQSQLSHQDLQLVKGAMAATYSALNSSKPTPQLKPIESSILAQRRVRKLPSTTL
T5 sequence (Q13557 whole entry): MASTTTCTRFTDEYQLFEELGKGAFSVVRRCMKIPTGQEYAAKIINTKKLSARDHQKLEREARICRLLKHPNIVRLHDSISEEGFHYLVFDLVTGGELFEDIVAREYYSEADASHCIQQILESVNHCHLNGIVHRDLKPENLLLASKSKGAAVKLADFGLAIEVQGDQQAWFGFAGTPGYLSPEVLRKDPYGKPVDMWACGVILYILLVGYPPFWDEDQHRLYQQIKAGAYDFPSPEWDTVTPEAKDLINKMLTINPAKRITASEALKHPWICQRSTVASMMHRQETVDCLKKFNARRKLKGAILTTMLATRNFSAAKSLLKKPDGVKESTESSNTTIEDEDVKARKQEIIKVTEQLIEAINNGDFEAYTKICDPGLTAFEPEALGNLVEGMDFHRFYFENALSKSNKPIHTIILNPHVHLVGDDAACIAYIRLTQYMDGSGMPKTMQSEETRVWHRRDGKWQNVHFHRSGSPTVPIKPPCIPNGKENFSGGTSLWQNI
T3 sequence (P22455 22-802): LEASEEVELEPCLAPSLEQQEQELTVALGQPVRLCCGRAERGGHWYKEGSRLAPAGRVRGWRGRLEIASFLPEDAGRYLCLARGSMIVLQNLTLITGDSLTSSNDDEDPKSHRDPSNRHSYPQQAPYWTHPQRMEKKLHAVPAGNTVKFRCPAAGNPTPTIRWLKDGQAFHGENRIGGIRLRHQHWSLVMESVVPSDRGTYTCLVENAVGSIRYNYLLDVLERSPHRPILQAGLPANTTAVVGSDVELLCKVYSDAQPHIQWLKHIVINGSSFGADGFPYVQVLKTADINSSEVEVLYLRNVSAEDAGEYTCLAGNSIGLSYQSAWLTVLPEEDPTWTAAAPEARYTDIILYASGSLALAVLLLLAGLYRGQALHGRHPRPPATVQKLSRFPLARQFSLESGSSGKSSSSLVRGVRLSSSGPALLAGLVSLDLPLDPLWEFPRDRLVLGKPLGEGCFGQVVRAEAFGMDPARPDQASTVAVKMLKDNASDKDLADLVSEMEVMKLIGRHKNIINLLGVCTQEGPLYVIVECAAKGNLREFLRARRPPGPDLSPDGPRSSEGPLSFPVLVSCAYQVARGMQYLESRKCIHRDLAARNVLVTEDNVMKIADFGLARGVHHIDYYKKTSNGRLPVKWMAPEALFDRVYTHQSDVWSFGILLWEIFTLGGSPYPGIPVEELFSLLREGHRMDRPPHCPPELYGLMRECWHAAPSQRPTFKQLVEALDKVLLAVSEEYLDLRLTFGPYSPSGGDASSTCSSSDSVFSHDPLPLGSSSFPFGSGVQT
T2 sequence (P14616 27-1297): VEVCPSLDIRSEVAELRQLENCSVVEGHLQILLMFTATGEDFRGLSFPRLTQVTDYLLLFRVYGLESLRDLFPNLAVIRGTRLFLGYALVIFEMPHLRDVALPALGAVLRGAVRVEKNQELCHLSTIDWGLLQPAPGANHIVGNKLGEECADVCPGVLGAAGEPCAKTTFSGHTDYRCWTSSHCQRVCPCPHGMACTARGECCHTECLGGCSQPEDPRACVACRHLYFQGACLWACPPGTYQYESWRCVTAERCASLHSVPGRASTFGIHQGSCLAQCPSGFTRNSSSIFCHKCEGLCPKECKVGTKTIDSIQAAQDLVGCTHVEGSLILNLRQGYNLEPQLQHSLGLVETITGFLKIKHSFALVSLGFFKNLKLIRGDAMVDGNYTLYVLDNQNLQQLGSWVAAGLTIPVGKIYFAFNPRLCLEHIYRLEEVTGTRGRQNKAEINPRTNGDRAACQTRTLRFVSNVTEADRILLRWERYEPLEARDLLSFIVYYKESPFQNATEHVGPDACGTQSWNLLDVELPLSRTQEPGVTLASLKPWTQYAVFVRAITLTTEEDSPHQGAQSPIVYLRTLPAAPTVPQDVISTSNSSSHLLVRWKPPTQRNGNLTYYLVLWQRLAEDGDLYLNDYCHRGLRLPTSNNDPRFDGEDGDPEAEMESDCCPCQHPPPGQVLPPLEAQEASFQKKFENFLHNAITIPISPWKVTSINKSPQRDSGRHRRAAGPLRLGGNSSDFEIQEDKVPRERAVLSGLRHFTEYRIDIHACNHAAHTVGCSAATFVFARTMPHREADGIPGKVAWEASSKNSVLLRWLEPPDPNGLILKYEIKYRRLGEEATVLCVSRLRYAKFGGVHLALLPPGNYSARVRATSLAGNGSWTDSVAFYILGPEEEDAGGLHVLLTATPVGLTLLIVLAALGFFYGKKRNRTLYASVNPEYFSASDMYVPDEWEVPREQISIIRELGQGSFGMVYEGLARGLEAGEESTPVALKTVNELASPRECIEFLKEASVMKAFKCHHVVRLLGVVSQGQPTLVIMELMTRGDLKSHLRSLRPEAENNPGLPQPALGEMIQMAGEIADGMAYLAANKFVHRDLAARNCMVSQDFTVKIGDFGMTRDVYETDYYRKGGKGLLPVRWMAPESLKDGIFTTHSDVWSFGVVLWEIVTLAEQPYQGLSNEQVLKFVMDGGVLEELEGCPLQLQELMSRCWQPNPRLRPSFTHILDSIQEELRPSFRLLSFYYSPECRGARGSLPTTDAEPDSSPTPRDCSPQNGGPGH
T4 sequence (P49137 whole entry): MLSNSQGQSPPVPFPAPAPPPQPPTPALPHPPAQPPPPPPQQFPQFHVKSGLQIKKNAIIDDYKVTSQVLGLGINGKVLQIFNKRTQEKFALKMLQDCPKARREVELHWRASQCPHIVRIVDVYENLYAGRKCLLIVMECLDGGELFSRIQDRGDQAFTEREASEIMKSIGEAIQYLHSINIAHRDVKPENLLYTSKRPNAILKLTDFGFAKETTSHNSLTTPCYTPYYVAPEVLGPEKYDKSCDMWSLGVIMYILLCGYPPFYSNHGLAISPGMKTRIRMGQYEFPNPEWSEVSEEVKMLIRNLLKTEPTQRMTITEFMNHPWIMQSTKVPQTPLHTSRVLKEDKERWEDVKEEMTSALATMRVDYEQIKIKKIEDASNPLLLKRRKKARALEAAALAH
T7 sequence (Q9H2X6 whole entry): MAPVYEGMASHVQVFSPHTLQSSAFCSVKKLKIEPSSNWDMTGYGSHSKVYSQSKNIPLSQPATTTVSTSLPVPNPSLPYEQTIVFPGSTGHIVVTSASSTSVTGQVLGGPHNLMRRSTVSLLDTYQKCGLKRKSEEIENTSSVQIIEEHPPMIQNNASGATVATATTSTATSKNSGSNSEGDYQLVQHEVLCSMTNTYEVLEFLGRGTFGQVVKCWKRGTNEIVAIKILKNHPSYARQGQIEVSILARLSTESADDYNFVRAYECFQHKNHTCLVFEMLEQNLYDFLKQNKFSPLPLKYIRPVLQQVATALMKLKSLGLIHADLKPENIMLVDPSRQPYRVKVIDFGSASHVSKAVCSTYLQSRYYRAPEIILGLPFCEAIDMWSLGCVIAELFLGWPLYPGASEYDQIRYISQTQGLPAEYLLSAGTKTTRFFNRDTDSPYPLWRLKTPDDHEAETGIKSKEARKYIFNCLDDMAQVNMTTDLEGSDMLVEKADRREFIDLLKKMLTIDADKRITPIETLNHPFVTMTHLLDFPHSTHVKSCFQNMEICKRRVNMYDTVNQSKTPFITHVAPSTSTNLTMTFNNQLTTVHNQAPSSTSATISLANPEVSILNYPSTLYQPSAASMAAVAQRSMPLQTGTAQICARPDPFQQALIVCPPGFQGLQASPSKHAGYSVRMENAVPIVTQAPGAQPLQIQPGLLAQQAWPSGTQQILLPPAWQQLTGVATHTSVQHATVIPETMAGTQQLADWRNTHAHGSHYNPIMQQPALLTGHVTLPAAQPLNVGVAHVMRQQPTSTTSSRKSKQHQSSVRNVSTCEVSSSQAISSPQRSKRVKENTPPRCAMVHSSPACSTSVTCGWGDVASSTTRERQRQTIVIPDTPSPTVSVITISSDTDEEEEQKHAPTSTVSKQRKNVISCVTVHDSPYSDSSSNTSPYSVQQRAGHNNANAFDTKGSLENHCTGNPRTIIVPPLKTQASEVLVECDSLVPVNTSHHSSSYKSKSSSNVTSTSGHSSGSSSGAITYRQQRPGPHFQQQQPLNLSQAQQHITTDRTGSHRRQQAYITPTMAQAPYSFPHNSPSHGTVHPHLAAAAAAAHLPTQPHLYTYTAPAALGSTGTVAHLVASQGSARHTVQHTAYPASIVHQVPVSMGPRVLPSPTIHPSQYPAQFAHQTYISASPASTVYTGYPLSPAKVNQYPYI

Regarding `O=C(Nc1cnn(-c2csc(C(=O)NC3COC3)c2)c1)Nc1ccccc1Cl` [Compound 17, 4-(4-(3-(2-chlorophenyl)ureido)-1H-pyrazol-1-yl)-N-(oxetan-3-yl)thiophene-2-carboxamide], the remaining activity at 5 µM in assay [1] turned out to be 93.3%; in assay [2], 96%; in assay [3] it was 88.2%; in assay [4], 97.1%; in assay [5], 103%; in assay [6] it was 92.4%. The remaining activity at 5 µM in assay [7] is 102%; in assay [8] it was 96%.
Regarding `O=C(Nc1cnn(-c2csc(C(=O)NC3COC3)c2)c1)Nc1c(F)cccc1Cl` [Compound 25, 4-(4-(3-(2-chloro-6-fluorophenyl)ureido)-1H-pyrazol-1-yl)-N-(oxetan-3-yl)thiophene-2-carboxamide], the remaining activity at 5 µM in assay [1] is 99.2%; in assay [2], 75.9%; in assay [3], 99.6%; in assay [4], 99.8%; in assay [5] it was 93.5%; in assay [6], 96.3%. In addition, the results for the remaining activity at 5 µM in assay [7] and in assay [8] were 92.6% and 104%, respectively.
For `Cc1sc(C(=O)NC2COC2)cc1-n1cc(NC(=O)Nc2c(F)cccc2Cl)cn1` [Compound 27, 4-(4-(3-(2-chloro-6-fluorophenyl)ureido)-1H-pyrazol-1-yl)-5-methyl-N-(oxetan-3-yl)thiophene-2-carboxamide], the remaining activity at 10 µM stood at 101% in assay [1] (10 uM); 71.9% in assay [2] (10 uM); 96.8% in assay [3] (FGFR4, 10 uM, read-out: % Enzyme Activity (relative to DMSO controls)); 93.6% in assay [4] (10 uM); 91.3% in assay [5] (10 uM); 93.2% in assay [6] (10 uM). Also, the remaining activity at 10 µM came out at 103% in assay [7] (10 uM) and 94.7% in assay [8] (10 uM).
